According to patent publication US20120029187A1, “HALOALKYLSULFONANILIDE DERIVATIVE” (Nissan Chemical Industries, Ltd., priority 2009, published 2012):

Tests used:
Format in all cases: in vivo
transplanted rice = experiment: Test Example 1: preemergence treatment under submerged conditions, effect on crop; conditions: dose 2.52 g/a
Summary of the method: (§1)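 Flooded-paddy preemergence assay; EC diluted with water, surface-applied at weed seeding; doses g/a; rice transplanted at 2.5 leaves; 0–5 mortality score after 3 weeks.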

common lambsquater [1] = experiment: Test Example 3: herbicidal effects in soil treatment; conditions: dose 3.2 g/a
Summary of the method: (§2)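 Seeds were sown in sterilized diluvial soil and covered with about 1.5 cm of soil. Compounds, formulated as emulsifiable concentrates and diluted with water, were sprayed evenly over the soil surface at set doses in g/a. Herbicidal effect was scored on a rating scale three weeks later.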

giant foxtail [2] = experiment: as above; conditions: dose 3.2 g/a
Summary of the method: as §2

Italian ryegrass [3] = experiment: as above; conditions: dose 3.2 g/a
Summary of the method: as §2

large crabgrass [4] = experiment: as above; conditions: dose 3.2 g/a
Summary of the method: as §2

redroot pigweed [5] = experiment: as above; conditions: dose 3.2 g/a
Summary of the method: as §2

water foxtail [6] = experiment: as above; conditions: dose 3.2 g/a
Summary of the method: as §2

common ragweed [7] = experiment: as above; conditions: dose 3.2 g/a
Summary of the method: as §2

barnyardgrass [8] = experiment: as above; conditions: dose 3.2 g/a
Summary of the method: as §2

common chickweed [9] = experiment: as above; conditions: dose 3.2 g/a
Summary of the method: as §2

posumbu knotweed [10] = experiment: as above; conditions: dose 3.2 g/a
Summary of the method: as §2

velvetleaf [11] = experiment: as above; conditions: dose 3.2 g/a
Summary of the method: as §2

barnyardgrass [12] = experiment: Test Example 2: herbicidal effects during the vegetation period under submerged conditions; conditions: treatment during the vegetation period under submerged conditions; dose 2.52 g/a
Summary of the method: (§3)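 Barnyardgrass, bulrush and ducksalad were co-sown in alluvial soil flooded to 4 cm and grown in a greenhouse at 25 to 30° C. At the 1- or 2-leaf stage, water-diluted emulsifiable concentrates went onto the water surface at set doses (g/a). Herbicidal effect was scored three weeks later on a graded scale.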

ducksalad [13] = experiment: as above; conditions: treatment during the vegetation period under submerged conditions; dose 2.52 g/a
Summary of the method: as §3

bulrush [14] = experiment: as above; conditions: treatment during the vegetation period under submerged conditions; dose 2.52 g/a
Summary of the method: as §3

common lambsquater [15] = experiment: Test Example 4: herbicidal effect in foliage treatment; conditions: dose 3.2 g/a, three weeks after application
Summary of the method: (§4)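 Foliar spray, post-emergence: 14-day-old greenhouse plants (25–30° C, diluvial soil) treated with water-diluted EC at set g/a doses; visual herbicidal score at 3 wk post-application.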

giant foxtail [16] = experiment: as above; conditions: dose 3.2 g/a, three weeks after application
Summary of the method: as §4

Italian ryegrass [17] = experiment: as above; conditions: dose 3.2 g/a, three weeks after application
Summary of the method: as §4

large crabgrass [18] = experiment: as above; conditions: dose 3.2 g/a, three weeks after application
Summary of the method: as §4

redroot pigweed [19] = experiment: as above; conditions: dose 3.2 g/a, three weeks after application
Summary of the method: as §4

water foxtail [20] = experiment: as above; conditions: dose 3.2 g/a, three weeks after application
Summary of the method: as §4

common ragweed [21] = experiment: as above; conditions: dose 3.2 g/a, three weeks after application
Summary of the method: as §4

barnyardgrass [22] = experiment: as above; conditions: dose 3.2 g/a, three weeks after application
Summary of the method: as §4

common chickweed [23] = experiment: as above; conditions: dose 3.2 g/a, three weeks after application
Summary of the method: as §4

posumbu knotweed [24] = experiment: as above; conditions: dose 3.2 g/a, three weeks after application
Summary of the method: as §4

beadstraw = experiment: as above; conditions: dose 3.2 g/a, three weeks after application
Summary of the method: as §4

velvetleaf [25] = experiment: as above; conditions: dose 3.2 g/a, three weeks after application
Summary of the method: as §4

barnyardgrass [26] = experiment: Test Example 1: herbicidal effects in preemergence treatment under submerged conditions; conditions: dose 2.52 g/a
Summary of the method: as §1

ducksalad [27] = experiment: as above; conditions: dose 2.52 g/a
Summary of the method: as §1

bulrush [28] = experiment: as above; conditions: dose 2.52 g/a
Summary of the method: as §1

## CCOC(=O)N(c1ccccc1CN1COC(C)(CC(F)(F)F)CC1=O)S(=O)(=O)C(F)(F)F (stereo not drawn) [II-53]
Transplanted rice
  a: transplanted rice, effect on crop (evaluation scale 0-5): 0 (mortality of less than 5% (almost ineffective))
Common lambsquater [1]
  L: common lambsquater, herbicidal effect (evaluation scale 0-5): 0 (mortality of less than 5% (almost ineffective))
Giant foxtail [2]
  E: giant foxtail, herbicidal effect (evaluation scale 0-5): 5 (mortality of 90% or above (nearly complete death))
Italian ryegrass [3]
  H: Italian ryegrass, herbicidal effect (evaluation scale 0-5): 3 (mortality of at least 40% and less than 70%)
Large crabgrass [4]
  D: large crabgrass, herbicidal effect (evaluation scale 0-5): 5 (mortality of 90% or above (nearly complete death))
Redroot pigweed [5]
  K: redroot pigweed, herbicidal effect (evaluation scale 0-5): 0 (mortality of less than 5% (almost ineffective))
Water foxtail [6]
  G: water foxtail, herbicidal effect (evaluation scale 0-5): 5 (mortality of 90% or above (nearly complete death))
Common ragweed [7]
  J: common ragweed, herbicidal effect (evaluation scale 0-5): 4 (mortality of at least 70% and less than 90%)
Barnyardgrass [8]
  A: barnyardgrass, herbicidal effect (evaluation scale 0-5): 5 (mortality of 90% or above (nearly complete death))
Common chickweed [9]
  N: common chickweed, herbicidal effect (evaluation scale 0-5): 5 (mortality of 90% or above (nearly complete death))
Posumbu knotweed [10]
  M: posumbu knotweed, herbicidal effect (evaluation scale 0-5): 5 (mortality of 90% or above (nearly complete death))
Velvetleaf [11]
  I: velvetleaf, herbicidal effect (evaluation scale 0-5): 5 (mortality of 90% or above (nearly complete death))
Barnyardgrass [12]
  A: barnyardgrass, herbicidal effect (evaluation scale 0-5): 5 (mortality of 90% or above (nearly complete death))
Ducksalad [13]
  C: ducksalad, herbicidal effect (evaluation scale 0-5): 5 (mortality of 90% or above (nearly complete death))
Bulrush [14]
  B: bulrush, herbicidal effect (evaluation scale 0-5): 5 (mortality of 90% or above (nearly complete death))
Common lambsquater [15]
  L: common lambsquater, herbicidal effect: 2 (mortality of at least 20% and less than 40%)
Giant foxtail [16]
  E: giant foxtail, herbicidal effect: 3 (mortality of at least 40% and less than 70%)
Italian ryegrass [17]
  H: Italian ryegrass, herbicidal effect: 4 (mortality of at least 70% and less than 90%)
Large crabgrass [18]
  D: large crabgrass, herbicidal effect: 3 (mortality of at least 40% and less than 70%)
Redroot pigweed [19]
  K: redroot pigweed, herbicidal effect: 0 (mortality of less than 5% (almost ineffective))
Water foxtail [20]
  G: water foxtail, herbicidal effect: 5 (mortality of 90% or above (nearly complete death))
Common ragweed [21]
  J: common ragweed, herbicidal effect: 3 (mortality of at least 40% and less than 70%)
Barnyardgrass [22]
  A: barnyardgrass, herbicidal effect: 4 (mortality of at least 70% and less than 90%)
Common chickweed [23]
  N: common chickweed, herbicidal effect: 5 (mortality of 90% or above (nearly complete death))
Posumbu knotweed [24]
  M: posumbu knotweed, herbicidal effect: 4 (mortality of at least 70% and less than 90%)
beadstraw
  O: beadstraw, herbicidal effect: 5 (mortality of 90% or above (nearly complete death))
Velvetleaf [25]
  I: velvetleaf, herbicidal effect: 4 (mortality of at least 70% and less than 90%)
Barnyardgrass [26]
  A: barnyardgrass, herbicidal effect (evaluation scale 0-5): 5 (mortality of 90% or above (nearly complete death))
Ducksalad [27]
  C: ducksalad, herbicidal effect (evaluation scale 0-5): 5 (mortality of 90% or above (nearly complete death))
Bulrush [28]
  B: bulrush, herbicidal effect (evaluation scale 0-5): 5 (mortality of 90% or above (nearly complete death))
